Experiments:
[1] = pH dependence of stability in aqueous solution; assay type: physicochemical; conditions: monohydrochloride
Experimental: (§1) The solubility of valganciclovir hydrochloride (active pharmaceutical ingredient, API) in aqueous solution is pH dependent. […] Valganciclovir hydrochloride is freely soluble under acidic conditions with a maximum solubility of greater than 200 mg/mL in the pH range of 4-6. The stability of valganciclovir hydrochloride is greatest at a pH<3.8.
The following excipients were used to prepare the formulations of Type I. Citric acid anhydrous was combined with sodium citrate to form the buffer system to ensure an acidic pH. […] Sodium benzoate was used as a preservative agent and sodium saccharin was used as an artificial sweetening agent. Maltose, a crystalline disaccharide carbohydrate, was used as a bulking agent (diluent) and to provide desirable mouth feel and sweetness. Strawberry flavor was used as the flavor of the oral solution.

[2] = physchem; assay type: physicochemical
Experimental: as §1

[3] = pKa; assay type: physicochemical
Experimental: as §1

[4] = assay type: physicochemical; conditions: pH 7
Experimental: as §1

[5] = Hygroscopicity on exposure to relative humidity; assay type: physicochemical; conditions: exposed to 80% relative humidity
Text: Valganciclovir hydrochloride is moderately hygroscopic, with only small changes in moisture observed when the valganciclovir hydrochloride is exposed to moderate relative humidity. A weight gain of up to approximately 3% occurs when the valganciclovir hydrochloride is exposed to 80% relative humidity (for a total moisture content of up to approximately 8%). It is reversibly hygroscopic and will either absorb or release moisture under ambient humidity conditions, depending on the water content of the valganciclovir hydrochloride and the relative humidity.

pH at which stability is greatest ([1]; listed as valganciclovir): ≤ 3.8
pH at which stability is greatest [1]: < 3.8
solubility ([2]; 25 °C, pH 7, water): 70 mg/mL
solubility ([2]; aqueous buffer): > 200 mg/mL
solubility in water ([2]; pH 7): 70 mg/mL
pKa [3]: 7.6
n-octanol/water partition coefficient [4]: 0.0095
total moisture content [5]: ≤ 8%
weight gain [5]: ≤ 3%
SMILES: CC(C)[C@H](N)C(=O)OCC(CO)OCn1cnc2c(=O)[nH]c(N)nc21.Cl (stereo partly drawn) [valganciclovir hydrochloride, L-Valine, 2-[(2-amino-1,6-dihydro-6-oxo-9H-purin-9-yl)methoxy]-3-hydroxypropyl ester, monohydrochloride]

From US11185588B2, “Pharmaceutical dosage forms comprising valganciclovir hydrochloride” (Hoffmann-La Roche Inc., priority 2006, dated 2021)
